{"source": "patent US20260000496A1", "about": "“MATERIALS AND METHODS FOR DRUG-INDUCED GINGIVAL OVERGROWTH” (Optimed Technology, Inc., priority 2019, published 2026)", "key": {"[1]": {"test_system": "Human TNF-α promoter", "test": "TNF-α promoter luciferase reporter assay in oral keratinocytes", "assay_type": "cell-based", "conditions": "full length promoter and deletion constructs; CSA, LPS & Folic acid each 10 μg/ml; p<0.05", "experimental": "Reporter assay. The TNF-α promoter deletion constructs, Δ−1220 (−1220 to +65) and Δ−450 (−450 to +65) were synthesized from SwitchGear Genomics (USA) for the luciferase reporter assay. The human TNF-α promoter constructs or an empty pLightSwitch promoter reporter vector as a control was transfected in to NOKSI using the FuGene reagent (SwitchGear Genomics, USA). Cells were seeded with a density of 5×10^3 per well of 96-well plate. GoClone reporter constructs and transfection reagents were mixed with optimum combination and incubated for 30 minutes. The media were changed to the seeded cells and reaction mixture were gently dripped onto the seeded cells, shaked the plate gently and incubated for next 24 hours. The LightSwitch assay reagents were added to the transfected plates and incubated for 30 minutes at room temperature. Luciferase activity were measured with a luminometer (Wallac Vector3; PerkinElmer, Boston, MA).\nOral Keratinocytes cells were transfected with Full length TNF-α promoter and […] and treated with CSA (10 μg/ml) & LPS (10 μg/ml), and CSA (10 μg/ml), LPS (10 μg/ml) & Folic acid (10 μg/ml). TNF-α luciferase reporter activity were measured. (p<0.05)."}, "[2]": {"test_system": "MyD88", "test": "Western blot of MyD88 in oral keratinocytes", "assay_type": "cell-based, human", "experimental": "(§1) Cell Culture. Normal human oral keratinocytes (NOKSI) and fibroblast (HOF) cells were maintained in Dulbecco […] Eagle's medium (Sigma-Aldrich, St. Louis, MO, USA) supplemented with 10% fetal bovine serum (Atlas Bio-logicals, Fort Collins, CO, USA) and 100 units/mL penicillin and 100 μg/mL streptomycin (LifeTechnologies, Carlsbad, CA, USA). Cells were grown in incubator at 37° C. in a humidified chamber with 5% CO2.\n(§2) Drugs treatment in cell culture. The cells were treated alone or with different combination of lipopolysaccharide, cyclosporine, phenytoin, and folic acid. All of them were purchased from Sigma-Aldrich (St. Louis, MO, USA). Each of them were used from 0 μg/ml to 40 μg/ml and the optimum concentration were found 10 μg/ml.\n(§3) Western blot analysis. Cells were seeded in 60 mm plates with a density of 5×10^5 cells per plate and washed briefly with Dulbecco's phosphate-buffered saline (Gibco, Waltham, MA, USA). Whole cell lysates were prepared using RIPA lysis buffer containing protease inhibitor cocktail (Sigma-Aldrich). Total protein concentration was determined using the BCA reagent (Pierce, Waltham, MA, USA). 20 μg of total protein were resolved on sodium dodecyl sulfate-polyacrylamide gel electrophoresis and transferred to polyvinylidenedifluoride membrane and immunoblotted. The blots were incubated for 1 h in 1% bovine serum albumin (BSA) (Sigma-Aldrich) to block the non-specific bindings followed by over-night incubation in primary antibodies (MyD88 and pP65 from Cell Signaling Technology, and human LITAF ThermoFisher Sigma) at 4° C. on shaker. Next day, blots were washed for three times (10 min each) in Tris-buffered saline containing 1% Tween20 (TBST) followed by incubation with secondary antibody (Goat anti-rabbit IgG HRP) with 1:10,000 dilution for 1 h. Following washes, bands were visualized using gel documentation Imaging Systems (BioRad). The band intensities were quantified using software ImageJ (NIH, USA) and relative protein levels were normalized by β-actin (Cell Signaling). To perform the western blot of animal tissue samples, the gingival tissues were collected from both BABLB/c and C57BL/6 mice studies. The soft tissues were separated from the mandibular bone and then crunched. The Bradford assay was performed to measure the protein concentration of each sample. After normalization, 20 μg of whole tissue protein lysate were proceeded for western blot analysis."}, "[3]": {"test_system": "NF-κB (p-P65)", "test": "Western blot of phospho-p65 (NF-κB) in oral keratinocytes", "assay_type": "cell-based, human", "experimental": "as §1, §2\nas §3, with “To perform the western blot of animal tissue samples, the gingival tissues were collected from both BABLB/c and C57BL/6 mice studies. The soft tissues were separated from the mandibular bone and then crunched. The Bradford assay was performed to measure the protein concentration of each sample. After normalization, 20 μg of whole tissue protein lysate were proceeded for western blot analysis.” left out"}, "[4]": {"test_system": "p-P65", "test": "Immunofluorescence of p-P65 nuclear translocation in oral keratinocytes", "assay_type": "cell-based, human", "conditions": "24 hours", "experimental": "Immunostaining and fluorescence microscopy. The cultured cells were fixed with 4% paraformaldehyde followed by permeabilization with phosphate buffered saline (PBS) containing 0.1% Triton X-100 (PBS-T), and blocking with PBS-T containing 5% bovine serum albumin (BSA). Then, the cells were incubated with anti-pP65 antibody (Cell Signaling, USA) followed by Alexa Fluor 488 conjugated-goat anti-rabbit secondary antibody (Invitrogen, Grand Island). Rhodamine phalloidin (Invitrogen) and 4′,6-diamidino-2-phenylindole (Vector labs, Burlingame) were added to visualize the actin and nucleus respectively. The samples were mounted and examined using a Zoe microscope (BioRad, USA). The image analyses were performed using the ImageJ (NIH) software.\nOral Keratinocytes cells were cultured, and treated with CSA, LPS or FA alone or with combinations and incubated for 24 hours. The immunofluorescent images were taken to determine the translocation of p-P65 (green) to the nucleus (blue). Cells were counterstained with Phalloidin (cytoskeleton, red) and DAPI (nucleus).\nOral Keratinocytes cells were seeded in 24 well plates. […] Translocation of phospho-p65 (p-P65) protein to the nucleus was determined by fluorescence microscopy as shown in the green color. The morphology of cells and nucleus position were determined by palloidin and DAPI staining shown by red and blue colors respectively."}, "[5]": {"test_system": "TLR4", "test": "FACS of surface TLR4 on oral keratinocytes", "assay_type": "cell-based, human", "conditions": "LPS (10 μg/ml), Phe (10 μg/ml), different concentration of folic acid, 24 hours", "experimental": "Flow cytometry. NOKSI cells were seeded in 100 mm plates with a density of 1×10^6 cells per plate. Cells were treated with drugs, LPS, and folic acid alone or in combination. After NOKSI were detached using Corning Cell Lifter (Corning) and 10 mM EDTA in PBS, the cells were washed with FACS buffer (PBS containing 1% BSA [Sigma] and 2 mM EDTA). Cells were stained by immunofluorescence for CD282 (TLR2) and CD284 (TLR4). Fluorescent labeled antibodies at a dilution of 1:1000 in staining buffer with 2% FBS in PBS were added and incubated for 30 min in dark on ice. Cells were centrifuged and washed thrice in staining buffer and passed through a 70 μm cell strainer before data acquisition. Data analysis was performed using FlowJo (TreeStar, Ashland, OR, USA). All incubations were performed on ice.\nOral Keratinocytes Cells were treated with only LPS (10 μg/ml) for 24 hours. […] Cells were treated with LPS (10 μg/ml) and Phe (10 μg/ml) for 24 hours. […] Cells were treated with LPS (10 μg/ml), Phe (10 μg/ml), and FA ([…]) for 24 hours. […] FIG. 16."}, "[6]": {"conditions": "LPS, CSA, FA each 10 μg/ml, 24 hours"}, "[7]": {"conditions": "LPS, Phe, FA each 10 μg/ml, 24 hours"}, "[8]": {"conditions": "normal oral keratinocyte cells, FIG. 35"}}, "data": [{"smiles": "Nc1nc2ncc(CNc3ccc(C(=O)N[C@@H](CCC(=O)O)C(=O)O)cc3)nc2c(=O)[nH]1", "note": "[folic acid]", "values": [{"measurement": "TNF-α luciferase reporter activity", "setting": "[1]", "value": "inhibits promoter activity of TNF-α"}, {"measurement": "MyD88 protein level", "setting": "[2]; [6]", "value": "inhibits CSA-induced expression"}, {"measurement": "amount of MYD88 protein", "setting": "[2]; [7]", "value": "MyD88 expression is reduced"}, {"measurement": "MyD88 by western blot, dose-dependent effects of FA", "setting": "[2]; different concentration of folic acid, 24 hrs", "value": "inhibition of MyD88"}, {"measurement": "MyD88 by western blot, kinetics of downregulation", "setting": "[2]; different time points, FA 10 μg/ml", "value": "inhibition of MyD88"}, {"measurement": "MyD88 by western blot", "setting": "[2]; [8]", "value": "downregulation"}, {"measurement": "p-P65 protein level", "setting": "[3]; [6]", "value": "inhibits CSA-induced expression"}, {"measurement": "amount of phospho-p65 (p-P65) protein", "setting": "[3]; [7]", "value": "reduces phosphorylation of NF-κB (p-P65)"}, {"measurement": "NF-κB by western blot", "setting": "[3]; [8]", "value": "downregulation"}, {"measurement": "translocation of p-P65 to the nucleus", "setting": "[4]; CSA, LPS or FA alone or in combinations", "value": "inhibits CSA-induced activation of phospho-P65"}, {"measurement": "translocation of phospho-p65 (p-P65) protein to the nucleus", "setting": "[4]; LPS, Phe, FA each 10 μg/ml", "value": "reduced nuclear translocation of p-P65"}, {"measurement": "TLR4 receptor on the cell surface", "setting": "[5]", "value": "do not alter"}]}]}
